Numbering of substitutions follows the chain as printed. Activity calls are given as the source filed them. No cut-off for these calls is given here.
Columns and labels:
[1] = target: T1, Retinoic acid receptor alpha (Homo sapiens, UniProt P10276); experiment: Binding affinity fo retinoic acid receptor RAR alpha
T1 sequence (P10276 whole entry): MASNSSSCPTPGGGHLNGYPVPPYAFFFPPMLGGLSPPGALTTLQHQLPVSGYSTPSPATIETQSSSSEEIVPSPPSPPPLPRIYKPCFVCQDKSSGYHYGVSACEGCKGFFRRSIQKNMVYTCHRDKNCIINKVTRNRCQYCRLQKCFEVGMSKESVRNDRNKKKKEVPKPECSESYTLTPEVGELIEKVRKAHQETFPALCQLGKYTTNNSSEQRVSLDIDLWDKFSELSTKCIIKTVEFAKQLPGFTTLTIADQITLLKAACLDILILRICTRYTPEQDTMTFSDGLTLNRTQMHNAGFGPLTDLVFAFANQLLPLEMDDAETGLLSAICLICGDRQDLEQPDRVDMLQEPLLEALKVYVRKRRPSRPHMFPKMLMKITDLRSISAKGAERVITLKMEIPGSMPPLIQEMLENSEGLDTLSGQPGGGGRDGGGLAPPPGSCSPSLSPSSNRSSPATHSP

[2] = target: T1, Retinoic acid receptor alpha; experiment: Effective concentration for retinoic acid receptor RAR alpha transcriptional activation; format: functional
[3] = target: T2, Retinoic acid receptor beta (Homo sapiens) (UniProt P10826); experiment: Percent transcriptional activation of RAR beta compared to […]; format: functional
T2 sequence (whole entry): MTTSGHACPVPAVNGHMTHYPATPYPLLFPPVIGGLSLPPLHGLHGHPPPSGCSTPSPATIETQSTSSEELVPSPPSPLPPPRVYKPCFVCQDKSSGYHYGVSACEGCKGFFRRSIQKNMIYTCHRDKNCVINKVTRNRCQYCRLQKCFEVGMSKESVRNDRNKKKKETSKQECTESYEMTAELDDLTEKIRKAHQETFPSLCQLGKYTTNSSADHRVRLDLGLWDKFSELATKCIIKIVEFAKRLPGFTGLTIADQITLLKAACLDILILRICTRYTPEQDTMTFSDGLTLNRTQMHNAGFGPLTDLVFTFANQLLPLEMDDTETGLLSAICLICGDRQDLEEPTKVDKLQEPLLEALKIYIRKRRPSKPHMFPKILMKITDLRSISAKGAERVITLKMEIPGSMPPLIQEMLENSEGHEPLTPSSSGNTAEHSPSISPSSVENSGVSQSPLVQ

[4] = target: T3, Retinoic acid receptor beta (Homo sapiens, UniProt P10826); experiment: Binding affinity for retinoic acid receptor RAR beta
T3 sequence (P10826 whole entry): T2 sequence (whole entry)

[5] = target: T3, Retinoic acid receptor beta; experiment: Effective concentration for retinoic acid receptor RAR beta transcriptional activation; format: functional
[6] = target: T4, Retinoic acid receptor gamma (Homo sapiens, UniProt P13631); experiment: Binding affinity for retinoic acid receptor RAR gamma
T4 sequence (P13631 whole entry): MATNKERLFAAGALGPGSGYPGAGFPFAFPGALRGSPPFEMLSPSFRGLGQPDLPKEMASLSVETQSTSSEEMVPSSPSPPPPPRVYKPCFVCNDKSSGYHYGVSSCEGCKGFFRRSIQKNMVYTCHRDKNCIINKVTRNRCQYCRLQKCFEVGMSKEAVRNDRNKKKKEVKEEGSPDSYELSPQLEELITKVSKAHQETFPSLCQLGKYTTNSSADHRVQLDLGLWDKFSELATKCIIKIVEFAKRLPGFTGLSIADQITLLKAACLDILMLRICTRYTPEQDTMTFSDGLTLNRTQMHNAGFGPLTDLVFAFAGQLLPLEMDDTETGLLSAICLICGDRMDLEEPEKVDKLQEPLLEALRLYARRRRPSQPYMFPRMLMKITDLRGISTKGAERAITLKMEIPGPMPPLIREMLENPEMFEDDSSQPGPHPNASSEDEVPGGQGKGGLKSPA

[7] = target: T4, Retinoic acid receptor gamma; experiment: Effective concentration for retinoic acid receptor RAR gamma transcriptional activation; format: functional
[8] = target: T5, Retinoic acid receptor gamma (Homo sapiens) (UniProt P13631); experiment: Percent transcriptional activation of RAR gamma compared to 1 µM ATRA
T5 sequence (whole entry): T4 sequence (P13631 whole entry)

[9] = test system: SK-BR-3; experiment: Inhibition of ER-negative human breast cancer cell SK-BR-3 proliferation; format: functional, cell-based
[10] = test system: SK-BR-3; experiment: Percent inhibition of BrdU incorporation into SK-BR-3 cells; format: functional, Homo sapiens
[11] = test system: T47D; experiment: Percent inhibition of BrdU incorporation into T-47D cells; format: functional, Homo sapiens
[12] = test system: T47D; experiment: Inhibition of ER positive human breast cancer cell T-47D proliferation; format: functional, cell-based
[13] = target: T2, Retinoic acid receptor beta (Homo sapiens); experiment: Percent transcriptional activation of RAR beta compared to […]; NA indicates […]; format: functional
[14] = target: T5, Retinoic acid receptor gamma (Homo sapiens); settings: 1 mM
[15] = target: T6, Retinoic acid receptor alpha (Homo sapiens) (UniProt P10276); experiment: Percent transcriptional activation of RAR alpha compared to […]; format: functional
T6 sequence (whole entry): T1 sequence (P10276 whole entry)

[16] = target: T7, Retinoic acid receptor alpha (Mus musculus) (UniProt P11416); experiment: Topical irritation induced by RAR alpha-selective retinoid Am-580 in mice; format: functional
T7 sequence (whole entry): T1 sequence (P10276 whole entry) with T43S, E150D, V169A, R347K, P427S, G431T, N453H, H460Q

CC1(C)CCC(C)(C)c2cc(C(=O)Nc3cc(F)c(C(=O)O)c(F)c3)c(O)cc21
Kd [1]: 3 nM
EC50 [2]: 112 nM
Efficacy [3]: 10%
Kd [4]: > 100000 nM
EC50 [5]: > 1000 nM
Kd [6]: 5600 nM
EC50 [7]: > 1000 nM
Efficacy [8]: 10%

CC1=C(/C=C/C(C)=C/C=C/C(C)=C/C(=O)O)C(C)(C)CCC1 [TRETINOIN]
IC50 [9]: 1.7 nM
Efficacy [10]: 99%
Efficacy [11]: 74%
IC50 [12]: 200 nM

CC1(C)CCC(C)(C)c2c1cc(C(=O)Nc1cc(F)c(C(=O)O)c(F)c1)c(O)c2Br
Kd [1]: 4 nM
EC50 [2]: 290 nM
Efficacy [13]: inactive
Kd [4]: 6400 nM
Kd [6]: > 100000 nM
Efficacy [14]: inactive

CC1(C)CCC(C)(C)c2cc(C(=O)Nc3cc(F)c(C(=O)O)c(F)c3)ccc21
Kd [1]: 7 nM
EC50 [2]: 94 nM
Efficacy [3]: 25%
Kd [4]: 1470 nM
EC50 [5]: > 1000 nM
Kd [6]: 5600 nM
Efficacy [14]: inactive

CC1(C)CCC(C)(C)c2cc(C(=O)Nc3ccc(C(=O)O)c(F)c3)ccc21
Kd [1]: 2 nM
EC50 [2]: 8 nM
Efficacy [3]: 78%
Kd [4]: 380 nM
EC50 [5]: 45 nM
Kd [6]: 990 nM
EC50 [7]: 350 nM
Efficacy [8]: 85%

CC1(C)CCC(C)(C)c2c1cc(C(=O)Nc1cc(F)c(C(=O)O)c(F)c1)c(O)c2Cl [NRX195183]
Kd [1]: 3 nM
EC50 [2]: 200 nM
Efficacy [15]: 80%
Efficacy [13]: inactive
Kd [4]: > 100000 nM
Kd [6]: > 100000 nM
Topical irritation score(0-21) [16]: 0
IC50 [9]: 11 nM
Efficacy [10]: 93%
Efficacy [11]: 57%
IC50 [12]: 1.4 nM
Efficacy [14]: inactive

CC1(C)CCC(C)(C)c2cc(C(=O)Nc3ccc(C(=O)O)cc3)ccc21
Efficacy [3]: 105%
Topical irritation score(0-21) [16]: 16
Efficacy [8]: 80%

From ChEMBL document CHEMBL1134943, “Synthesis and biological activity of retinoic acid receptor-alpha specific amides” (Bioorg Med Chem Lett, 2002)
